Measured values taken from BindingDB's records for patent US20240109893 (Shanghai Kechow Pharma, 2024).

Target: GTPase KRas [G12C] (Homo sapiens, UniProt P01116, G12C)
Test: KRAS G12C-GDP Exchange Assay
Method: 1. […] 2. […] The IC50 (median inhibitory concentration) of the compound was obtained by the following non-linear fitting formula: Y=Bottom+(Top−Bottom)/(1+10^((Log IC50−X)*Hill Slope)), and the data were analyzed by Graphpad 6-0 software.

Sequence of GTPase KRas [G12C] (P01116 whole entry G12C): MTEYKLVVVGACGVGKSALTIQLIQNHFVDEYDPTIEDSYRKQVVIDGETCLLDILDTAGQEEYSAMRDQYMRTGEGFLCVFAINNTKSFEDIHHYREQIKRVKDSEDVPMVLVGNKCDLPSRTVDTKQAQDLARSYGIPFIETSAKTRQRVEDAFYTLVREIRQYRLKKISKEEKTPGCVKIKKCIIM

IC50: 1.44 nM
SMILES: C=CC(=O)N1CCN(c2nc(OC[C@@H]3CCCN3C)nc3cc(-c4cccc5cccc(Cl)c45)c(F)cc23)C[C@@H]1CC#N [US20240109893, Example 394]
